In patent US9670214B2, “Small molecule myristate inhibitors of Bcr-abl and methods of use” (DANA-FARBER CANCER INSTITUTE, INC., priority 2007, dated 2017):

Key:
[1] = target: Bcr-abl (Ba/F3.p210 cells) (Homo sapiens, UniProt P00519); assay: Proliferation assay (MTT), wild type Bcr-abl expressing Ba/F3 cells; type: cell-based, murine; details: 48 h, drug concentrations 0.005-10 μM
From the text: (§1) Wild type Bcr-abl expressing 32D (32D.p210) and Ba/F3 (Ba/F3.p210) cells, and mutant Bcr-abl expressing cell lines Ba/F3.p210^G250E, Ba/F3.p210^E255V, Ba/F3.p210^T315I, Ba/F3.p210^F317L and Ba/F3.p210^M351T, as well as Ba/F3 cells transformed with Flt-3-ITD kinase. Additional assays included Ba/F3 cells expressing the fusion protein kinases TEL-PDGFRβ, TEL-JAK1, NPM-ALK, TEL-cKit, Tel-Bmx, Tel-FGR3, Tel-Lck and Ba/F3.TPR-met cells. All the above cell lines were maintained in RPMI-1640 medium with L-Glutamine, 10% FBS and 1 mg/ml geneticin (Gibco).
(§2) Cells (0.3-0.6×10^6/ml) were plated in duplicate or triplicate in 96-well plates containing increasing drug concentrations (0.005-10 μM). After incubation at 37° C. in 5% CO2 for 48 h, the effect of the compounds on cell viability was determined by MTT (Promega) colorimetric dye reduction method. Inhibition of cell proliferation was calculated as a percentage of growth of DMSO treated cells, and IC50 values were determined with Microsoft Excel XLfit3.

[2] = test system: Ba/F3 cells (IL-3 dependent murine pro-B cell line); assay: Proliferation assay (MTT), parental Ba/F3 cells; type: cell-based; details: Mus musculus, 48 h, drug concentrations 0.005-10 μM, read-out: BaF3
Procedure: Interleukin-3 (IL-3) dependent murine pro-B cell line, Ba/F3, and murine myeloid precursor cell line, 32D, were maintained in RPMI-1640 medium supplemented with L-Glutamine, 10% FBS and 10 U/ml recombinant murine IL-3 (Roche). Mo7e human megakarioblastic cell line was grown in RPMI-1640 medium supplemented with L-Glutamine, 20% FBS and 5 ng/ml recombinant human granulocyte macrophage cell stimulating factor (GM-CSF) (R&D Systems) or 200 ng/ml stem cell factor (SCF) (Biosource).
as §2

[3] = target: Bcr-abl T315I (Ba/F3.p210^T315I cells) (Homo sapiens, UniProt P00519, T315I, cells depend on it); assay: Proliferation assay (MTT), T315I mutant Bcr-abl expressing Ba/F3 cells; type: cell-based, murine; details: 48 h, drug concentrations 0.005-10 μM
From the text: as §1, §2

| IC50 [1] [µM] | SMILES | IC50 [2] [µM] | IC50 [3] [µM] |
| --- | --- | --- | --- |
| > 10 | Cn1ncc2c(Nc3ccc(OC(F)(F)F)cc3)ncnc21 | > 10 | – |
| – | COC(=O)c1cc2c(Nc3ccc(OC(F)(F)F)cc3)ncnc2s1 | > 10 | > 10 |
| – | O=C(O)c1cc2c(Nc3ccc(OC(F)(F)F)cc3)ncnc2s1 | > 10 | > 10 |
| – | CN(C)C1CCN(C(=O)c2cc3c(Nc4ccc(OC(F)(F)F)cc4)ncnc3s2)C1 (centres unmarked) | > 10 | > 10 |
| – | O=C(NC1CCN(Cc2ccccc2)C1)c1cc2c(Nc3ccc(OC(F)(F)F)cc3)ncnc2s1 (centres unmarked) | 0.926 | 0.621 |
| – | O=C(c1cc2c(Nc3ccc(OC(F)(F)F)cc3)ncnc2s1)N1CCC[C@H]1CO | 3.66 | 1.21 |
| – | O=C(c1cc2c(Nc3ccc(OC(F)(F)F)cc3)ncnc2s1)N1CCN(c2cccc(C(F)(F)F)c2)CC1 | 4.55 | 1.92 |
| – | CN1CCN(C(=O)c2cc3c(Nc4ccc(OC(F)(F)F)cc4)ncnc3s2)CC1 | 2.69 | 1.25 |
| – | O=C(c1cc2c(Nc3ccc(OC(F)(F)F)cc3)ncnc2s1)N1CCC(O)CC1 | > 10 | > 10 |
| – | FC(F)(F)Oc1ccc(Nc2ncnc3sccc23)cc1 | > 10 | > 10 |
| – | Cc1cc2c(Nc3ccc(OC(F)(F)F)cc3)ncnc2s1 | > 10 | > 10 |
| – | NS(=O)(=O)c1ccc(-c2cc(Nc3ccc(OC(F)(F)F)cc3)ncn2)cc1 | > 10 | 1.05 |
| – | CNS(=O)(=O)c1ccc(-c2ncnc(Nc3ccc(OC(F)(F)F)cc3)c2C)cc1 | 2.5 | 2.13 |
| – | CCNS(=O)(=O)c1ccc(-c2cc(Nc3ccc(OC(F)(F)F)cc3)ncn2)cc1 | > 10 | 1.85 |
| – | O=S(=O)(NCCO)c1ccc(-c2cc(Nc3ccc(OC(F)(F)F)cc3)ncn2)cc1 | > 10 | 1.45 |
| – | CS(=O)(=O)c1ccc(-c2cc(Nc3ccc(OC(F)(F)F)cc3)ncn2)cc1 | > 10 | 6.1 |
| – | CCN(CC)S(=O)(=O)c1ccc(-c2cc(Nc3ccc(OC(F)(F)F)cc3)ncn2)cc1 | 8.85 | 3.88 |
| – | O=S(=O)(c1ccc(-c2cc(Nc3ccc(OC(F)(F)F)cc3)ncn2)cc1)N1CCCCC1 | > 10 | 1.41 |
| – | Cc1ccc(S(=O)(=O)Nc2ccc(-c3cc(Nc4ccc(OC(F)(F)F)cc4)ncn3)cc2)cc1 | > 10 | > 10 |
| – | Cc1ccc(S(=O)(=O)Nc2ccc(-c3ncnc(Nc4ccc(OC(F)(F)F)cc4)c3C)cc2)cc1 | > 10 | > 10 |
| – | O=S(=O)(c1ccc(-c2cc(Nc3ccc(OC(F)(F)F)cc3)ncn2)cc1)N1CCOCC1 | > 10 | 2.63 |
| – | CS(=O)(=O)Nc1ccc(-c2cc(Nc3ccc(OC(F)(F)F)cc3)ncn2)cc1 | 2.21 | 0.6 |
| – | CCCC(C)S(=O)(=O)Nc1ccc(-c2cc(Nc3ccc(OC(F)(F)F)cc3)ncn2)cc1 (centres unmarked) | 3.8 | 1.66 |

| IC50 [1] [µM] | SMILES | IC50 [2] [µM] | IC50 [3] [µM] |
| --- | --- | --- | --- |
| – | Cc1c(Nc2ccc(OC(F)(F)F)cc2)ncnc1-c1ccc(C(=O)NCCO)cc1 | > 10 | 4.67 |
| – | Cc1c(Nc2ccc(OC(F)(F)F)cc2)ncnc1-c1ccc(C(=O)NCCN2CCOCC2)cc1 | 3.79 | 0.81 |
| – | CC(=O)Nc1cccc(-c2ncnc(Nc3ccc(OC(F)(F)F)cc3)c2C)c1 | > 10 | > 10 |
| – | Cc1c(Nc2ccc(OC(F)(F)F)cc2)ncnc1-c1cccc(C(N)=O)c1 | > 10 | > 10 |
| – | Cc1c(Nc2ccc(OC(F)(F)F)cc2)ncnc1-c1cccc(C(=O)O)c1 | > 10 | > 10 |
| – | FC(F)(F)Oc1ccc(Nc2cc(-c3ccc(-c4ccccc4)cc3)ncn2)cc1 | > 10 | 3.18 |
| – | Cc1c(Nc2ccc(OC(F)(F)F)cc2)ncnc1-c1ccc(-c2ccccc2)cc1 | > 10 | > 10 |
| – | COc1cccc2cc(-c3cc(Nc4ccc(OC(F)(F)F)cc4)ncn3)ccc12 | > 10 | > 10 |
| – | COc1cccc2cc(-c3ncnc(Nc4ccc(OC(F)(F)F)cc4)c3C)ccc12 | > 10 | > 10 |
| – | N#CCc1cccc(-c2cc(Nc3ccc(OC(F)(F)F)cc3)ncn2)c1 | 8.82 | 3.39 |
| – | O=[N+]([O-])c1cccc(-c2cc(Nc3ccc(OC(F)(F)F)cc3)ncn2)c1 | > 10 | > 10 |
| – | COc1ccc(C(=O)Nc2ccc(-c3cc(Nc4ccc(OC(F)(F)F)cc4)ncn3)cc2)cc1 | 9.22 | > 10 |
| – | Cc1c(Nc2ccc(OC(F)(F)F)cc2)ncnc1-c1ccc(CN)cc1 | > 10 | > 10 |
| – | FC(F)(F)Oc1ccc(Nc2ncnc(NCCN3CCOCC3)c2Br)cc1 | > 10 | > 10 |
| – | NC(=O)C1CCCN(c2ncnc(Nc3ccc(OC(F)(F)F)cc3)c2Br)C1 (centres unmarked) | > 10 | > 10 |
| – | FC(F)(F)Oc1ccc(Nc2cc(-n3ccnc3NCCN3CCOCC3)ncn2)cc1 | > 10 | > 10 |
| – | FC(F)(F)Oc1ccc(Nc2cc(-n3ccnc3Nc3ccc(OC(F)(F)F)cc3)ncn2)cc1 | > 10 | > 10 |
| – | Nc1cc(C2CC2)n(-c2cc(Nc3ccc(OC(F)(F)F)cc3)ncn2)n1 | > 10 | > 10 |
| – | FC(F)(F)Oc1ccc(Nc2cc(-n3ccc4cccnc43)ncn2)cc1 | > 10 | > 10 |
| – | FC(F)(F)Oc1ccc(Nc2cc(-c3cn[nH]c3)ncn2)cc1 | > 10 | ~0.46 |
| – | CC(C)Cn1cc(-c2cc(Nc3ccc(OC(F)(F)F)cc3)ncn2)cn1 | > 10 | 1.55 |
| – | CCS(=O)(=O)n1cc(-c2cc(Nc3ccc(OC(F)(F)F)cc3)ncn2)cn1 | > 10 | 4.25 |
| – | FC(F)(F)Oc1ccc(Nc2cc(-c3cnn(Cc4ccncc4)c3)ncn2)cc1 | 7.3 | 4 |

| IC50 [1] [µM] | SMILES | IC50 [2] [µM] | IC50 [3] [µM] |
| --- | --- | --- | --- |
| – | Cc1c(-c2cc(Nc3ccc(OC(F)(F)F)cc3)ncn2)cnn1-c1ccccc1 | > 10 | 6.23 |
| – | Cc1c(Nc2ccc(OC(F)(F)F)cc2)ncnc1-c1cnn(-c2ccccc2)c1C | 8.85 | 5.24 |
| – | FC(F)(F)Oc1ccc(Nc2cc(-c3cccc4[nH]ccc34)ncn2)cc1 | > 10 | 6.67 |
| – | FC(F)(F)Oc1ccc(Nc2cc(-c3c[nH]c4ccccc34)ncn2)cc1 | > 10 | 9.28 |
| – | FC(F)(F)Oc1ccc(Nc2cc(-c3ccc4[nH]ccc4c3)ncn2)cc1 | > 10 | 8.71 |
| – | O=Cc1cc(-c2cc(Nc3ccc(OC(F)(F)F)cc3)ncn2)co1 | > 10 | 3.83 |
| – | FC(F)(F)Oc1ccc(Nc2cc(-c3cccc4sccc34)ncn2)cc1 | 3.06 | 3.74 |
| – | Cc1c(Nc2ccc(OC(F)(F)F)cc2)ncnc1-c1cccc2[nH]ccc12 | > 10 | > 10 |
| – | FC(F)(F)Oc1ccc(Nc2cc(-c3cccc4c3oc3ccccc34)ncn2)cc1 | > 10 | 4.6 |
| – | FC(F)(F)Oc1ccc(Nc2cc(-c3cnn(Cc4ccccc4)c3)ncn2)cc1 | > 10 | 1.3 |
| – | FC(F)(F)Oc1ccc(Nc2cc(-c3cc(Nc4ccc(OC(F)(F)F)cc4)ncn3)ncn2)cc1 | > 10 | 7 |
| – | Cc1ccc(NC(=O)c2ccccc2)cc1Nc1nccn1-c1cc(Nc2ccc(OC(F)(F)F)cc2)ncn1 | > 10 | > 10 |
| – | Cc1ccc(NC(=O)c2ccc(CN3CCOCC3)c(C(F)(F)F)c2)cc1Nc1nccn1-c1cc(Nc2ccc(OC(F)(F)F)cc2)ncn1 | > 10 | 6.61 |
| – | FC(F)(F)Oc1ccc(Nc2cc(-c3ccnc4[nH]ccc34)ncn2)cc1 | 6.85 | > 10 |
| – | O=c1cc(-c2cc(Nc3ccc(OC(F)(F)F)cc3)ncn2)cc[nH]1 | > 10 | > 10 |
| – | Cc1nc(-c2cc(Nc3ccc(OC(F)(F)F)cc3)ncn2)cs1 | > 10 | > 10 |
| – | O=Cc1cc(-c2cc(Nc3ccc(OC(F)(F)F)cc3)ncn2)ccc1F | 4.12 | 5.84 |
| – | CN1CCN(c2cc(-c3cc(Nc4ccc(OC(F)(F)F)cc4)ncn3)ccn2)CC1 | 0.71 | 0.386 |
| – | O=C(NCCO)c1cc2c(Nc3ccc(OC(F)(F)F)cc3)ncnc2s1 [N-(2-hydroxyethyl)-4-(4-(trifluoromethoxy)phenylamino)thieno[2,3-d]pyrimidine-6-carboxamide] | > 10 | > 10 |
| – | Cc1nn(C)c(C)c1-c1cc(Nc2ccc(OC(F)(F)F)cc2)ncn1 [N-(4-(trifluoromethoxy)phenyl)-6-(1,3,5-trimethyl-1H-pyrazol-4-yl)pyrimidin-4-amine] | > 10 | > 10 |
| – | O=C(NCCN1CCOCC1)c1cc2c(Nc3ccc(OC(F)(F)F)cc3)ncnc2s1 [drawing 343] | > 10 | > 10 |
